Structures can show the parent of a compound that is named as a salt.

The test system of assay [1] is constitutive active colorectal cancer cell (CRC) Wnt pathway. The experiment in a line: HCT116 TOPFlash cellular reporter assay (Super TopFlash luciferase), constitutive active Wnt pathway. It is filed as cell-based. The note with it: HCT116 TOP reporter cells, 36 hours incubation, luciferase expression. The protocol: In order to discover and characterize small molecules which inhibit the constitutive active colorectal cancer cell (CRC) Wnt pathway, a cellular reporter assay was employed. […] Stable transfectants were generated by cotransfection with pcDNA3 and selection of stable transfected cells with 1 mg/ml G418.

The test system of assay [2] is HCT116 FOP control reporter cell line. As to the kind of experiment: HCT116 FOPFlash control reporter assay (FOP control vector, non-functional TCF elements). It is filed as cell-based. The note with it: HCT116 FOP control reporter cells, 36 hours incubation, luciferase expression. An excerpt:
In a parallel approach, HCT116 cells were cotransfected with the FOP control vector and pcDNA3. The FOP vector is identical to the TOP construct, but it contains instead of functional TCF elements a randomized, non-functional sequence. For this transfection a stable transfected cell line was generated as well.
In general terms: In a reporter assay the amount or activity of a reporter protein is the signal.

Broadly, the IC50 is the midpoint of a concentration-inhibition curve. For the molecule `O=C(Nc1nnc(-c2ccccc2)s1)c1ccc(Cl)c(NC(=O)C2(N3CCN(C4CC4)CC3)CC2)c1` [Example 262, 4-chloro-3-({[1-(4-cyclopropylpiperazin-1-yl)cyclopropyl]carbonyl}amino)-N-(5-phenyl-1,3,4-thiadiazol-2-yl)benzamide trifluoroacetate (1:1)], the IC50 in assay [1] (Homo sapiens, HCT-116, 36 h) is 0.195 µM; in assay [2] (Homo sapiens, HCT-116, 36 h) it was at least 50 µM.
In the same order, the values of `CN1CCN(CC(=O)Nc2cc(C(=O)Nc3nnc(-c4ccccc4)s3)ccc2CS(C)(=O)=O)CC1` [Example 104, 3-{[(4-methylpiperazin-1-yl)acetyl]amino}-4-[(methylsulfonyl)methyl]-N-(5-phenyl-1,3,4-thiadiazol-2-yl)benzamide] are 2.03 µM and at least 50 µM.
Regarding `CN1CCN(CC(=O)Nc2cc(C(=O)Nc3ccc(-c4ccccc4F)nc3)ccc2OC(F)(F)F)CC1` [Example 197, N-[6-(2-fluorophenyl)pyridin-3-yl]-3-{[(4-methylpiperazin-1-yl)acetyl]amino}-4-(trifluoromethoxy)benzamide], the IC50 in assay [1] (Homo sapiens, HCT-116, 36 h) was found to be 1.2 µM; in assay [2] (Homo sapiens, HCT-116, 36 h), 34 µM.
As to `COc1ccc(NC(=O)c2ccc(-c3ccc(F)cc3)s2)cc1NC(=O)CN1CCOCC1` [Example 36, 5-(4-fluorophenyl)-N-{4-methoxy-3-[(morpholin-4-ylacetyl)amino]phenyl}thiophene-2-carboxamide], the IC50 in assay [1] (Homo sapiens, HCT-116, 36 h) stood at 1.2 µM; in assay [2] (Homo sapiens, HCT-116, 36 h), 22 µM.
In the same order, the values of `COc1ccc(C(=O)Nc2ccc(-c3ccccc3)nc2)cc1NC(=O)CN1CCOCC1` [Example 4, 4-methoxy-3-[(morpholin-4-ylacetyl)amino]-N-(6-phenylpyridin-3-yl)benzamide] are 0.3 µM and at least 50 µM.
On to `CC(C(=O)Nc1cc(NC(=O)c2ccc(-c3ccccc3F)nc2)ccc1OC(F)(F)F)N1CC2CCC(C1)O2` (stereo not shown) [Example 204, 6-(2-fluorophenyl)-N-[3-{[2-(8-oxa-3-azabicyclo[3.2.1]oct-3-yl)propanoyl]amino}-4-(trifluoromethoxy)phenyl] nicotinamide], for which the half-inhibitory concentration (IC50) in assay [1] is 0.0765 µM; in assay [2], 32.8 µM.
As for `C[C@H]1CN(C)CCN1CC(=O)Nc1cc(C(=O)Nc2ccc(-c3ccccc3F)nc2)ccc1OC(F)(F)F` [Example 162, 3-({[(2S)-2,4-dimethylpiperazin-1-yl]acetyl}amino)-N-[6-(2-fluorophenyl)pyridin-3-yl]-4-(trifluoromethoxy)benzamide], the concentration for half-maximal inhibition (IC50) was 0.0855 µM in assay [1] (Homo sapiens, HCT-116, 36 h) and at least 50 µM in assay [2] (Homo sapiens, HCT-116, 36 h).
In the same order, the values of `CC(C(=O)Nc1cc(C(=O)Nc2ccc(-c3ccc(O)c(F)c3)nc2)ccc1OC(F)(F)F)N1CCOCC1` (stereo not shown) [Example 110, N-[6-(3-fluoro-4-hydroxyphenyl)pyridin-3-yl]-3-{[2-(morpholin-4-yl)propanoyl]amino}-4-(trifluoromethoxy)benzamide] are 0.45 µM and 42 µM.
Turning to `CC(C(=O)Nc1cc(C(=O)Nc2ccc(-c3cccc(F)c3)nc2)ccc1OC(F)(F)F)N1C[C@@H]2C[C@H]1CO2` (stereo partly drawn) [Example 192, N-[6-(3-fluorophenyl)pyridin-3-yl]-3-({2-[(1S,4S)-2-oxa-5-azabicyclo[2.2.1]hept-5-yl]propanoyl}amino)-4-(trifluoromethoxy)benzamide], the IC50 in assay [1] (Homo sapiens, HCT-116, 36 h) is 0.135 µM; in assay [2] (Homo sapiens, HCT-116, 36 h), 12.4 µM.
In the same order, the values of `O=C(CN1CCOCC1)Nc1cc(C(=O)Nc2nnc(-c3ccccc3)o2)ccc1OC(F)(F)F` [Example 191, 3-[(morpholin-4-ylacetyl)amino]-N-(5-phenyl-1,3,4-oxadiazol-2-yl)-4-(trifluoromethoxy)benzamide] are 4.1 µM and at least 50 µM.
Regarding `CC(C(=O)Nc1cc(C(=O)Nc2ccc(-c3cc(F)cc(F)c3)nc2)ccc1OC(F)(F)F)N1CCOCC1` (stereo not shown) [Example 221, N-[6-(3,5-difluorophenyl)pyridin-3-yl]-3-{[2-(morpholin-4-yl)propanoyl]amino}-4-(trifluoromethoxy)benzamide], the IC50 in assay [1] was found to be 0.235 µM; in assay [2], 12.2 µM.
In the same order, the values of `CC(C(=O)Nc1cc(C(=O)Nc2ccc(-c3ccccc3F)nc2)ccc1C(F)(F)F)N1CCOCC1` (stereo not shown) [Example 211, N-[6-(2-fluorophenyl)pyridin-3-yl]-3-{[2-(morpholin-4-yl)propanoyl]amino}-4-(trifluoromethyl)benzamide] are 0.0402 µM and 24.6 µM.
In the case of `CC(C(=O)Nc1cc(C(=O)Nc2ccc(-c3cccc(F)c3)nc2)ccc1OC(F)(F)F)N1CCOCC1` (stereo not shown) [Example 69, N-[6-(3-fluorophenyl)pyridin-3-yl]-3-{[2-(morpholin-4-yl)propanoyl]amino}-4-(trifluoromethoxy)benzamide], the IC50 in assay [1] is 0.0148 µM; in assay [2], at least 50 µM.
`CC(C(=O)Nc1cc(NC(=O)c2ccc(-c3cccc(F)c3)nc2)ccc1OC(F)(F)F)N1C[C@@H]2C[C@H]1CO2` (relative stereo) [Example 193, 6-(3-fluorophenyl)-N-[3-({(2R*)-2-[(1S,4S)-2-oxa-5-azabicyclo[2.2.1]hept-5-yl]propanoyl}amino)-4-(trifluoromethoxy)phenyl] nicotinamide]: the IC50 is 0.148 µM in assay [1] (Homo sapiens, HCT-116, 36 h) and 8.8 µM in assay [2] (Homo sapiens, HCT-116, 36 h).
In the same order, the values of `O=C(Nc1nnc(-c2ccccc2)s1)c1ccc(OCc2ccccc2)c(NC(=O)C2(N3CCOCC3)CC2)c1` [Example 92, 4-(benzyloxy)-3-({[1-(morpholin-4-yl)cyclopropyl]carbonyl}amino)-N-(5-phenyl-1,3,4-thiadiazol-2-yl)benzamide] are 0.36 µM and at least 50 µM.
In the same order, the values of `O=C(CN1CC2CCC(C1)O2)Nc1cc(C(=O)Nc2nnc(-c3ccccc3)s2)ccc1OC(F)F` [Example 86, 4-(difluoromethoxy)-3-[(8-oxa-3-azabicyclo[3.2.1]oct-3-ylacetyl)amino]-N-(5-phenyl-1,3,4-thiadiazol-2-yl)benzamide] are 0.89 µM and at least 50 µM.
In the same order, the values of `O=C(CN1CCOCC1)Nc1cc(C(=O)Nc2ccc(-c3cc(F)cc(F)c3)nc2)ccc1OC(F)(F)F` [Example 72, N-[6-(3,5-difluorophenyl)pyridin-3-yl]-3-[(morpholin-4-ylacetyl)amino]-4-(trifluoromethoxy)benzamide] are 0.106 µM and 8 µM.
On to `CN1CCN(CC(=O)Nc2cc(C(=O)Nc3nnc(-c4ccc(Cl)cc4)s3)ccc2OC(F)(F)F)CC1` [Example 147, N-[5-(4-chlorophenyl)-1,3,4-thiadiazol-2-yl]-3-{[(4-methylpiperazin-1-yl)acetyl]amino}-4-(trifluoromethoxy)benzamide], for which the IC50 in assay [1] (Homo sapiens, HCT-116, 36 h) was 2.2 µM; in assay [2] (Homo sapiens, HCT-116, 36 h), at least 50 µM.
In the same order, the values of `C[C@H]1CN(CC(=O)Nc2cc(C(=O)Nc3ccc(-c4ccccc4F)nc3)ccc2OC(F)(F)F)CCN1C` [Example 163, 3-({[(3S)-3,4-dimethylpiperazin-1-yl]acetyl}amino)-N-[6-(2-fluorophenyl)pyridin-3-yl]-4-(trifluoromethoxy)benzamide] are 0.057 µM and at least 50 µM.
With `CC(C(=O)Nc1cc(NC(=O)c2ccc(-c3ccccc3F)nc2)ccc1OC(F)(F)F)N1CC2CCC(C1)O2` (stereo not shown) [Example 212, 6-(2-fluorophenyl)-N-[3-{[2-(8-oxa-3-azabicyclo[3.2.1]oct-3-yl)propanoyl]amino}-4-(trifluoromethoxy)phenyl] nicotinamide], the IC50 in assay [1] is 0.18 µM; in assay [2], at least 50 µM.
For `CC1CN(C)CCN1CC(=O)Nc1cc(C(=O)Nc2ccc(-c3ccccc3F)nc2)ccc1OC(F)(F)F` (stereo not shown) [Example 165, 3-{[(2,4-dimethylpiperazin-1-yl)acetyl]amino}-N-[6-(2-fluorophenyl)pyridin-3-yl]-4-(trifluoromethoxy)benzamide], the half-maximal inhibitory concentration (IC50) in assay [1] (Homo sapiens, HCT-116, 36 h) was 0.051 µM; in assay [2] (Homo sapiens, HCT-116, 36 h), 7.2 µM.
Take `CC(C(=O)Nc1cc(C(=O)Nc2ccc(-c3cc(F)cc(F)c3)nc2)ccc1OC(F)(F)F)N1C[C@@H]2C[C@H]1CO2` (relative stereo) [Example 180, N-[6-(3,5-difluorophenyl)pyridin-3-yl]-3-({(2R*)-2-[(1S,4S)-2-oxa-5-azabicyclo[2.2.1]hept-5-yl]propanoyl}amino)-4-(trifluoromethoxy)benzamide]: the IC50 in assay [1] was 0.148 µM; in assay [2], 9.8 µM.
In the same order, the values of `CC(C(=O)Nc1cc(NC(=O)c2ccc(-c3cc(F)cc(F)c3)nc2)ccc1OC(F)(F)F)N1CCOCC1` (stereo not shown) [Example 219, 6-(3,5-difluorophenyl)-N-[3-{[2-(morpholin-4-yl)propanoyl]amino}-4-(trifluoromethoxy)phenyl] nicotinamide] are 0.245 µM and at least 50 µM.
In the case of `CC(C(=O)Nc1cc(NC(=O)c2ccc(-c3cccc(F)c3)nc2)ccc1OC(F)(F)F)N1CC2CCC(C1)O2` (stereo not shown) [Example 200, 6-(3-fluorophenyl)-N-[3-{[2-(8-oxa-3-azabicyclo[3.2.1]oct-3-yl)propanoyl]amino}-4-(trifluoromethoxy)phenyl] nicotinamide], the concentration for half-maximal inhibition (IC50) in assay [1] worked out at 0.19 µM; in assay [2], 6.4 µM.
Turning to `Nc1ccc(-c2nnc(NC(=O)c3ccc(OC(F)(F)F)c(NC(=O)CN4CCOCC4)c3)s2)cc1` [Example 263, N-[5-(4-aminophenyl)-1,3,4-thiadiazol-2-yl]-3-[(morpholin-4-ylacetyl)amino]-4-(trifluoromethoxy)benzamide], the IC50 is 0.25 µM in assay [1] (Homo sapiens, HCT-116, 36 h) and at least 50 µM in assay [2] (Homo sapiens, HCT-116, 36 h).
In the same order, the values of `Cc1ccccc1-c1nnc(NC(=O)c2ccc(OC(F)(F)F)c(NC(=O)C3(N4CCOCC4)CC3)c2)s1` [Example 257, N-[5-(2-methylphenyl)-1,3,4-thiadiazol-2-yl]-3-({[1-(morpholin-4-yl)cyclopropyl]carbonyl}amino)-4-(trifluoromethoxy)benzamide] are 0.017 µM and at least 50 µM.
